Laboratory results from patent publication EP0420798B1, “Antimicrobial compositions” (Ciba Vision AG, Hettlingen, priority 1989, dated 1991).

Legend:
C. albicans = assay: Preservative challenge test; assay type: cell-based; set-up: key to Reduktion des Wachstums: k. W.: k.W.: kein Wachstum; conditions: 0,1 mg/ml, pH 6, inoculum 9,9•10^5/ml
Description: (§1) Die konservierende Wirkung der Verbindungen der Formel I wird z.B. aus den Ergebnissen des folgenden Konservierungsmittelbelastungstests deutlich: […]

E. coli = assay: Preservative challenge test; assay type: cell-based; set-up: key to Reduktion des Wachstums: k. W.: k.W.: kein Wachstum; conditions: 0,1 mg/ml, pH 6, inoculum 1,5•10^6/ml
Description: as §1

[1] = 5-day ocular tolerance test in animals; assay type: in vivo, Kaninchen
Description: Die überraschenderweise verbesserte Augenverträglichkeit der Verbindungen der Formel I im Vergleich zu Benzalkoniumchlorid wird z.B. aus den Ergebnissen der im folgenden beschriebenen 5-Tage-Verträglichkeitsprüfung beim Tier deutlich: Verglichen wurden jeweils 0,01 %-ige Lösungen von Benzoxoniumchlorid und Benzalkoniumchlorid. Diese Lösungen wurden 5 Tage lang fünfmal (in 90 Minuten-Invervallen) in den Konjunktivalsack von Kaninchen eingetropft. Am Ende des Versuchs wurden die behandelten Augen auf Klinische Befunde, wie z.B. Rötungen der Konjunktiva, Korneatrübungen, Sekretion und Bindehautschwellungen, untersucht. Dabei ergaben sich die folgenden Resultate: Brenzoxoniumchlorid (≙ Verbindung der Formel I), 0,01 % 5 Instillationen/Tier/Tag im Abstand von jeweils 90 min keine Befunde Benzalkoniumchlorid (≙ Vergleichsverbindung), 0,01 % 5 Instillationen/Tier/Tag im Abstand von jeweils 90 min 4 Befunde

Ps. aeruginosa = assay: Preservative challenge test; assay type: cell-based; set-up: key: k. W.: k.W.: kein Wachstum; conditions: 0,1 mg/ml, pH 6, inoculum 1,1•10^6/ml
Description: as §1

St. aureus = assay: Preservative challenge test; assay type: cell-based; set-up: key: k. W.: k.W.: kein Wachstum; conditions: 0,1 mg/ml, pH 6, inoculum 1,4•10^6/ml
Description: as §1

[2] = 4-week ocular local tolerance study in rabbits; assay type: in vivo, pigmentierte Himalayakaninchen; conditions: 0,01 % solution, 50 µl ten times daily at 45 min intervals into conjunctival sac of right eye for 4 weeks; histopathology at end; animals with conjunctival lesions and acanthosis/hyperkeratosis at margin of lower right eyelid
Description: Die bessere Augenverträglichkeit der Verbindungen der Formel I im Vergleich zu Benzalkoniumchlorid wird z.B. auch aus den Ergebnissen der im folgenden beschriebenen 4 Wochen dauernden okularen, lokalen Verträglichkeitsstudie beim Kaninchen deutlich: Verglichen wurden jeweils 0,01 %-ige Lösungen von N-Benzyl-N-(gemischtes C₈-C₁₈-Alkyl)-N,N-bis-(2-hydroxyethyl)-ammoniumchlorid und Benzalkoniumchlorid. Als Versuchstiere dienten pigmentierte Himalayakaninchen. Diesen wurden 4 Wochen lang zehnmal täglich (in 45 Minuten-Intervallen) jeweils 50 µl der entsprechenden Lösung in den Konjunktivalsack des rechten Auges verabreicht. Zur Kontrolle wurde in das linke Auge jeweils eine Vergleichslösung, die kein Konservierungsmittel enthielt, eingetropft. Die Tiere wurden am ersten und am fünften Behandlungstag ophthalmologisch untersucht. […] Dagegen wurden bei 4 von 6 mit Benzalkoniumchloridlösung behandelten Tieren Läsionen in der Konjunktiva und eine Akanthose und Hyperkeratose am Rand des unteren rechten Augenlids beobachtet. Die Benzalkoniumchloridlösung verursachte demnach Aenderungen am konjunktivalen Epithel, welche bei der erfindungsgemässen Lösung nicht auftraten. Damit ist überzeugend nachgewiesen, dass die Verbindungen der Formel I eine im Vergleich zu Benzalkoniumchlorid überraschend verbesserte Langzeitverträglichkeit im Auge besitzen.

Row | Compound | Reduktion des Wachstums (C. albicans; contact time 6 h) | Reduktion des Wachstums (C. albicans; contact time 24 h) | killing at 100 µg/mL (C. albicans; Candida albicans, 10 min, contact time 10 min, read-out: Reduktion des Wachstums) [%] | Reduktion des Wachstums (E. coli; contact time 6 h) | Reduktion des Wachstums (E. coli; contact time 24 h) | killing at 100 µg/mL (E. coli; Escherichia coli, 10 min, contact time 10 min, read-out: Reduktion des Wachstums) [%] | Klinische Befunde ([1]; 0,01 % solution, 5 instillations/animal/day at 90 min intervals into the conjunctival sac for 5 days, eyes examined at end of test (conjunctival redness, corneal opacity, secretion, conjunctival swelling)) | Reduktion des Wachstums (Ps. aeruginosa; contact time 10 min) | Reduktion des Wachstums (Ps. aeruginosa; contact time 6 h) | Reduktion des Wachstums (Ps. aeruginosa; contact time 24 h) | Reduktion des Wachstums (St. aureus; contact time 10 min) | Reduktion des Wachstums (St. aureus; contact time 6 h) | Reduktion des Wachstums (St. aureus; contact time 24 h) | okulare Läsionen [2] | Klinische Befunde ([1]; in vivo) [Befunde]
1 | CCCCCCCCCCCC[N+](CCO)(CCO)Cc1ccccc1.[Cl-] [Benzoxoniumchlorid, N-Benzyl-N-(n-dodecyl)-N,N-bis-(2-hydroxyethyl)-ammoniumchlorid] | k. W. | k. W. | 100 | k. W. | k. W. | 100 | keine Befunde | k. W. | k. W. | k. W. | k. W. | k. W. | k. W. | – | –
2 | N-Benzyl-N-(C₈-C₁₈-alkyl)-N,N-dimethylammoniumchlorid [Benzalkoniumchlorid, reference compound] | – | – | – | – | – | – | – | – | – | – | – | – | – | 4 von 6 | 4
3 | N-Benzyl-N-(gemischtes C₈-C₁₈-Alkyl)-N,N-bis-(2-hydroxyethyl)-ammoniumchlorid | – | – | – | – | – | – | – | – | – | – | – | – | – | keine okularen Läsionen | –
